Measured values: BigSolDB 2.1

CC(CN1c2ccccc2S(=O)(=O)c2ccccc21)N(C)C.Cl (centres undefined)
Settings | solubility (mole fraction)
in DMF, 278.2 K | 0.00381
in DMF, 283.2 K | 0.00418
in DMF, 288.27 K | 0.00448
in DMF, 293.18 K | 0.00474
in DMF, 298.17 K | 0.00514
in DMF, 303.19 K | 0.00554
in DMF, 308.23 K | 0.00601
in DMF, 313.17 K | 0.00658
in DMF, 318.23 K | 0.00716
in DMF, 323.18 K | 0.00783
in NMP, 278.16 K | 0.00641
in NMP, 283.2 K | 0.00692
in NMP, 288.24 K | 0.00747
in NMP, 293.16 K | 0.00791
in NMP, 298.17 K | 0.00843
in NMP, 308.17 K | 0.00975
in NMP, 313.21 K | 0.0104
in NMP, 318.23 K | 0.0111
in NMP, 323.27 K | 0.0119
in acetic acid, 293.16 K | 0.00208
in acetic acid, 298.18 K | 0.00277
in acetic acid, 303.18 K | 0.00347
in acetic acid, 308.2 K | 0.00433
in acetic acid, 313.17 K | 0.00548
in acetic acid, 318.22 K | 0.00689
in acetic acid, 328.23 K | 0.01
in acetic acid, 333.19 K | 0.0123
in acetic acid, 338.2 K | 0.0149
in acetone, 278.2 K | 0.000103
in acetone, 283.16 K | 0.000124
in acetone, 288.16 K | 0.00015
in acetone, 293.17 K | 0.000177
in acetone, 298.18 K | 0.000199
in acetone, 303.17 K | 0.000216
in acetone, 308.21 K | 0.000237
in acetone, 313.2 K | 0.000258
in acetone, 318.18 K | 0.000278
in acetone, 323.17 K | 0.000298
in ethanol, 278.16 K | 0.000269
in ethanol, 283.21 K | 0.000296
in ethanol, 288.22 K | 0.000322
in ethanol, 293.18 K | 0.000365
in ethanol, 298.21 K | 0.000419
in ethanol, 303.22 K | 0.0005
in ethanol, 308.18 K | 0.000589
in ethanol, 313.17 K | 0.000686
in ethanol, 318.2 K | 0.000829
in methanol, 278.17 K | 0.000759
in methanol, 283.22 K | 0.000925
in methanol, 288.19 K | 0.00112
in methanol, 293.26 K | 0.00137
in methanol, 298.17 K | 0.00156
in methanol, 303.19 K | 0.00185
in methanol, 308.21 K | 0.00225
in methanol, 313.21 K | 0.00284
in methanol, 318.18 K | 0.0034
in water, 278.28 K | 0.00136
in water, 283.27 K | 0.00163
in water, 288.27 K | 0.002
in water, 293.24 K | 0.00246
in water, 298.18 K | 0.00302
in water, 303.18 K | 0.00379
in water, 308.16 K | 0.00484
in water, 313.22 K | 0.00625
